US8598374B2, “GPR120 receptor agonists and uses thereof” (Metabolex, Inc, priority 2008, dated 2013)

target: T1, human GPR120 (Homo sapiens, UniProt Q5NUL3); assay: Intracellular Ca2+ assay (FLIPR Calcium 4, Flexstation) in human GPR120 stable cell line; type: cell-based; conditions: % activity at 2.5 μM compared to the maximal activity of the compound of Example 25 at 2.5 μM; HEK293 cells co-expressing Gqi5
T1 construct: Flag (DYKDDDDK) (N); host or cells: HEK293 cells co-expressing Gqi5
T1 sequence (Q5NUL3 1-361): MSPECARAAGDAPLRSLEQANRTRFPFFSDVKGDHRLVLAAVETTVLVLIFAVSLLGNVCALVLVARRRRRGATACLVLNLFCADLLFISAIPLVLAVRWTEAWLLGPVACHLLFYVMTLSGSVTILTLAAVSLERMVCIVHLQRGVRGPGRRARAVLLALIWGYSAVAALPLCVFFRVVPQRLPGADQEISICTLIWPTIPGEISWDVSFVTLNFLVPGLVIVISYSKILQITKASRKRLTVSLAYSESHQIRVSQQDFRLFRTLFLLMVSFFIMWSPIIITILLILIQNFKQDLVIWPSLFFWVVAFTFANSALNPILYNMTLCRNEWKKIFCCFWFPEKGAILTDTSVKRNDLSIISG
How it was run: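 HEK293 cells co-expressing Gqi5 and stably expressing Flag-tagged human GPR120 were seeded at 70,000 cells per well in poly-D-lysine coated 96 well plates and loaded with FLIPR Calcium 4 dye for 50 minutes at 37° C. On a Flexstation, compound-induced fluorescence (excitation 485 nm, emission 525) was recorded for 90 seconds. Percent activity was expressed against a reference agonist's maximal activity at 2.5 μM, set as 100%.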

% Activity (Ex. 25 Reference Compound) [%]	Compound
143.3	C[C@H](Cc1ccc(OCc2cc(Cl)cc3c2OC(C)(C)C3)c(F)c1)C(=O)O [Example 141, (R)-3-(4-((5-chloro-2,2-dimethyl-2,3-dihydrobenzofuran-7-yl)methoxy)-3-fluorophenyl)-2-methylpropanoic acid]
90.56	C[C@H](Cc1ccc(OCc2cc(Cl)cc3c2OC(C)(C)C3)c(C(F)(F)F)c1)C(=O)O [Example 143, (R)-3-(4-((5-chloro-2,2-dimethyl-2,3-dihydrobenzofuran-7-yl)methoxy)-3-(trifluoromethyl)phenyl)-2-methylpropanoic acid]
143.69	[2H]C1([2H])c2cc(F)cc(COc3ccc(CC(C)C(=O)O)cc3)c2OC1(C)C (stereo not shown) [Example 145, 3-(4-((3,3-dideuterio-5-fluoro-2,2-dimethyl-2,3-dihydrobenzofuran-7-yl)methoxy)phenyl)-2-methylpropanoic acid]
140.72	[2H]C1([2H])c2cc(Cl)cc(COc3ccc(CC(C)C(=O)O)cc3F)c2OC1(C)C (stereo not shown) [Example 146, 3-(4-((3,3-dideuterio-5-chloro-2,2-dimethyl-2,3-dihydrobenzofuran-7-yl)methoxy)-3-fluorophenyl)-2-methylpropanoic acid]
138.65	[2H]C1([2H])c2cc(Cl)cc(COc3ccc(CC(C)C(=O)O)cc3C(F)(F)F)c2OC1(C)C (stereo not shown) [Example 147, 3-(4-((3,3-dideuterio-5-chloro-2,2-dimethyl-2,3-dihydrobenzofuran-7-yl)methoxy)-3-(trifluoromethyl)phenyl)-2-methylpropanoic acid]
113.89	CC(Cc1ccc(OCc2cc(Cl)cc3c2OCC3(C)C)cc1)C(=O)O (stereo not shown) [Example 148, 3-(4-((5-chloro-3,3-dimethyl-2,3-dihydrobenzofuran-7-yl)methoxy)phenyl)-2-methylpropanoic acid]
117.38	Cc1cc2cccc(COc3c(F)cc(CC(C)C(=O)O)cc3F)c2s1 (stereo not shown) [Example 151, 3-(3,5-difluoro-4-((2-methylbenzo[b]thiophen-7-yl)methoxy)phenyl)-2-methylpropanoic acid]
83.81	Cc1cc2cccc(COc3ccc4c(c3)CCC4CC(=O)O)c2s1 (stereo not drawn) [Example 152, 2-(5-((2-methylbenzo[α]thiophen-7-yl)methoxy)-2,3-dihydro-1H-inden-1-yl)acetic acid]
106.81	CC1(C)Cc2cc(F)cc(COc3ccc4c(c3)CCCC4CC(=O)O)c2O1 (stereo not shown) [Example 153, 2-(6-((5-fluoro-2,2-dimethyl-2,3-dihydrobenzofuran-7-yl)methoxy)-1,2,3,4-tetrahydronaphthalen-1-yl)acetic acid]
148.87	CC1(C)Cc2cc(Cl)cc(COc3ccc(C(C)(C)CC(=O)O)cc3)c2O1 [Example 156, 3-(4-((5-chloro-2,2-dimethyl-2,3-dihydrobenzofuran-7-yl)methoxy)phenyl)-3-methylbutanoic acid]
164.79	CC(Cc1ccc(OCc2cc(Cl)cc3c2OC2(CCCC2)C3)cc1)C(=O)O (stereo not shown) [Example 159, 3-(4-((5-chloro-3H-spiro[benzofuran-2,1′-cyclopentane]-7-yl)methoxy)phenyl)-2-methylpropanoic acid]
172.13	CC1(C)Cc2cc(F)cc(COc3ccc(CCCC(=O)O)cc3)c2O1 [Example 160, 4-(4-((5-fluoro-2,2-dimethyl-2,3-dihydrobenzofuran-7-yl)methoxy)phenyl)butanoic acid]
154.48	CC(Cc1ccc(OCc2cc(F)cc3c2OC2(CCCC2)C3)cc1)C(=O)O (stereo not shown) [Example 162, 3-(4-((5-fluoro-3H-spiro[benzofuran-2,1′-cyclopentane]-7-yl)methoxy)phenyl)-2-methylpropanoic acid]
158.08	O=C(O)C1CC1c1ccc(OCc2cc(F)cc3c2OC2(CCCC2)C3)cc1 (stereo not shown) [Example 165, 2-(4-((5-fluoro-3H-spiro[benzofuran-2,1′-cyclopentane]-7-yl)methoxy)phenyl)cyclopropanecarboxylic acid]
98.97	CC(CCc1ccc(OCc2cc(F)cc3c2OC(C)(C)C3)cc1)C(=O)O (stereo not shown) [Example 171, 4-(4-((5-fluoro-2,2-dimethyl-2,3-dihydrobenzofuran-7-yl)methoxy)phenyl)-2-methylbutanoic acid]
159.06	COc1cc(CCC(=O)O)ccc1OCc1cc(F)cc2c1OC(C)(C)C2 [Example 173, 3-(4-((5-fluoro-2,2-dimethyl-2,3-dihydrobenzofuran-7-yl)methoxy)-3-methoxyphenyl)propanoic acid]

% Activity (Ex. 25 Reference Compound) [%]	Compound
152.44	CC1(C)Cc2cc(F)cc(COc3ccc4c(c3)CC[C@H]4CC(=O)O)c2O1 [Example 175, (S)-2-(5-((5-fluoro-2,2-dimethyl-2,3-dihydrobenzofuran-7-yl)methoxy)-2,3-dihydro-1H-inden-1-yl)acetic acid]
138.42	CC1(C)Cc2cc(Cl)cc(COc3ccc4c(c3)CC[C@H]4CC(=O)O)c2O1 [Example 176, (S)-2-(5-((5-chloro-2,2-dimethyl-2,3-dihydrobenzofuran-7-yl)methoxy)-2,3-dihydro-1H-inden-1-yl)acetic acid]
106	CC1(C)Cc2cc(F)cc(COc3ccc4c(c3)CC[C@@H]4CC(=O)O)c2O1 [Example 178, (R)-2-(5-((5-fluoro-2,2-dimethyl-2,3-dihydrobenzofuran-7-yl)methoxy)-2,3-dihydro-1H-inden-1-yl)acetic acid]
105.44	CC1(C)Cc2cc(Cl)cc(COc3ccc4c(c3)CC[C@@H]4CC(=O)O)c2O1 [Example 179, (R)-2-(5-((5-chloro-2,2-dimethyl-2,3-dihydrobenzofuran-7-yl)methoxy)-2,3-dihydro-1H-inden-1-yl)acetic acid]
98.43	CC(CC(=O)O)Cc1ccc(OCc2cc(F)cc3c2OC(C)(C)C3)cc1 (stereo not shown) [Example 182, 4-(4-((5-fluoro-2,2-dimethyl-2,3-dihydrobenzofuran-7-yl)methoxy)phenyl)-3-methylbutanoic acid]
97.04	CC1(C)Cc2cc(F)cc(COc3c(F)cc(CC4CC4C(=O)O)cc3F)c2O1 (stereo not shown) [Example 184, 2-(3,5-difluoro-4-((5-fluoro-2,2-dimethyl-2,3-dihydrobenzofuran-7-yl)methoxy)benzyl)cyclopropanecarboxylic acid]
104.04	CC1(C)Cc2c(COc3ccc4c(c3)CC[C@@H]4CC(=O)O)cc(F)cc2O1 [Example 188, (R)-2-(5-((6-fluoro-2,2-dimethyl-2,3-dihydrobenzofuran-4-yl)methoxy)-2,3-dihydro-1H-inden-1-yl)acetic acid]
148.21	COc1cc(OCc2cc(Cl)cc3c2OC2(CCCC2)C3)ccc1CCC(=O)O [Example 194, 3-(4-((5-chloro-3H-spiro[benzofuran-2,1′-cyclopentane]-7-yl)methoxy)-2-methoxyphenyl)propanoic acid]
151.44	CC1(C)Cc2cc(F)cc(COc3cc(Cl)c(CCC(=O)O)c(Cl)c3)c2O1 [Example 197, 3-(2,6-dichloro-4-((5-fluoro-2,2-dimethyl-2,3-dihydrobenzofuran-7-yl)methoxy)phenyl)propanoic acid]
111.45	Cc1cc(OCc2cc(F)cc3c2OC(C)(C)C3)c(C)cc1CCC(=O)O [Example 206, 3-(4-((5-fluoro-2,2-dimethyl-2,3-dihydrobenzofuran-7-yl)methoxy)-2,5-dimethylphenyl)propanoic acid]
147.47	Cc1c(CCC(=O)O)ccc(OCc2cc(F)cc3c2OC(C)(C)C3)c1C [Example 208, 3-(4-((5-fluoro-2,2-dimethyl-2,3-dihydrobenzofuran-7-yl)methoxy)-2,3-dimethylphenyl)propanoic acid]
142.22	Cc1c(CCC(=O)O)ccc(OCc2cc(Cl)cc3c2OC(C)(C)C3)c1C [Example 209, 3-(4-((5-chloro-2,2-dimethyl-2,3-dihydrobenzofuran-7-yl)methoxy)-2,3-dimethylphenyl)propanoic acid]
143.21	Cc1cc(OCc2cc(F)cc3c2OC(C)(C)C3)c(F)cc1CCC(=O)O [Example 214, 3-(5-fluoro-4-((5-fluoro-2,2-dimethyl-2,3-dihydrobenzofuran-7-yl)methoxy)-2-methylphenyl)propanoic acid]
144.23	CCc1c(CCC(=O)O)ccc(OCc2cc(F)cc3c2OC(C)(C)C3)c1F [Example 216, 3-(2-ethyl-3-fluoro-4-((5-fluoro-2,2-dimethyl-2,3-dihydrobenzofuran-7-yl)methoxy)phenyl)propanoic acid]
114.48	CC1(C)Cc2cc(F)cc(COc3ccc(CCC(=O)O)c4c3CCCC4)c2O1 [Example 218, 3-(4-((5-fluoro-2,2-dimethyl-2,3-dihydrobenzofuran-7-yl)methoxy)-5,6,7,8-tetrahydronaphthalen-1-yl)propanoic acid]
